Consider 3 compounds from ChEMBL document CHEMBL5696442, “Discovery of type II inhibitors of TGFβ-activated kinase 1 (TAK1) and mitogen-activated protein kinase kinase kinase kinase 2 (MAP4K2)” (J Med Chem, 2015).

In assay [1] the target is SRSF protein kinase 2 (Homo sapiens) (UniProt P78362). Description: Inhibition of SRPK2 (unknown origin) at 1 uM by Ambit Kinomescan binding assay relative to control.
Assay [2] deals with Tyrosine-protein kinase Yes (Homo sapiens) (UniProt P07947). Briefly: Inhibition of YES (unknown origin) at 10 uM by Ambit Kinomescan binding assay relative to control; values are per cent of control.
Assay [3] deals with Ribosomal protein S6 kinase alpha-1 (Homo sapiens) (UniProt Q15418). Description: Inhibition of N-terminal RPS6KA1 kinase domain 1 (unknown origin) at 10 uM by Ambit Kinomescan binding assay.
Ribosomal protein S6 kinase alpha-1 (Homo sapiens), sequence (Q15418 whole entry, the tested form may be a part): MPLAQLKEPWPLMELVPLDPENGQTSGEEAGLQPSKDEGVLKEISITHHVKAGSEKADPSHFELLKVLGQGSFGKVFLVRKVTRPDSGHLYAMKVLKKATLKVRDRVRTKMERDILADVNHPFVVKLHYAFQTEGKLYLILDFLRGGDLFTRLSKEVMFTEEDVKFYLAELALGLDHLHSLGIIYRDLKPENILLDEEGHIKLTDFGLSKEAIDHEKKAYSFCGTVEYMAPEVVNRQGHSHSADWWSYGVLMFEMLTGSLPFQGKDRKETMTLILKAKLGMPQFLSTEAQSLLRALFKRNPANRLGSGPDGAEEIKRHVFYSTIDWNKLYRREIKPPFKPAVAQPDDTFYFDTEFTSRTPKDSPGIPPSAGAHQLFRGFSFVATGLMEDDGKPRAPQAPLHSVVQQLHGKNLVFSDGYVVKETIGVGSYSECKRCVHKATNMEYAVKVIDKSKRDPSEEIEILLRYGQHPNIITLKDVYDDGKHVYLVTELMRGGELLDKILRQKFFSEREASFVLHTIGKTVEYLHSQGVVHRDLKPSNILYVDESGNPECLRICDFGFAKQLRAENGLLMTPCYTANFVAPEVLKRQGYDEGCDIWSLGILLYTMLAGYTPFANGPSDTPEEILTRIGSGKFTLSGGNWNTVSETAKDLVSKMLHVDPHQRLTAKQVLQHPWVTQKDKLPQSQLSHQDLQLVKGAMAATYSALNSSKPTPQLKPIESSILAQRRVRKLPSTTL
Assay [4] deals with Dual specificity mitogen-activated protein kinase kinase; MEK1/2 (Homo sapiens) (UniProt P36507+Q02750). Description: Inhibition of MAP2K1/2 K2 labeling site in human Huh-7 cells at 1 uM by KiNativ Profiling analysis relative to control. Type of assay: cell-based.
The target of assay [5] is Casein kinase I isoform delta (Homo sapiens) (UniProt P48730). Briefly: Inhibition of CK1delta Lys2 labeling site in human A-375 cells at 0.5 uM by KiNativ Profiling analysis relative to control. Type of assay: cell-based.
The target of assay [6] is Tyrosine-protein kinase Mer (Homo sapiens) (UniProt Q12866). Description: Inhibition of MERTK (unknown origin) at 10 uM by Ambit Kinomescan binding assay.
For assay [7], the target named is T1, Mitogen-activated protein kinase 12 (Homo sapiens) (UniProt P53778).
T1 sequence (whole entry): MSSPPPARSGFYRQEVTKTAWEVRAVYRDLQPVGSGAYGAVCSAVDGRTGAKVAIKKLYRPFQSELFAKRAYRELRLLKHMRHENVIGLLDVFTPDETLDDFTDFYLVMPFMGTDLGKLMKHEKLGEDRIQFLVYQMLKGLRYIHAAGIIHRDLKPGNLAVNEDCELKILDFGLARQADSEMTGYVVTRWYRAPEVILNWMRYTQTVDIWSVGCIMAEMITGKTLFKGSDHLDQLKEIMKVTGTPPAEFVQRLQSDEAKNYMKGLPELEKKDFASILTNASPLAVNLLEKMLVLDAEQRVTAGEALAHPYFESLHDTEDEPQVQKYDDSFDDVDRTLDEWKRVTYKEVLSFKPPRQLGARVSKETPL
Briefly: Inhibition of p38gamma (unknown origin) at 10 uM by Ambit Kinomescan binding assay relative to control; values are per cent of control.

Assay [8] has as its target Misshapen-like kinase 1 (Homo sapiens) (UniProt Q8N4C8). Briefly: Inhibition of ZC3 Lys2 labeling site in human A-375 cells at 5 uM by KiNativ Profiling analysis relative to control. Type of assay: cell-based.
For assay [9], the target named is cAMP-dependent protein kinase catalytic subunit beta (Homo sapiens) (UniProt P22694). Briefly: Inhibition of PKAC beta (unknown origin) at 10 uM by Ambit Kinomescan binding assay relative to control.
Assay [10] addresses Cyclin-dependent kinase 2 (Homo sapiens) (UniProt P24941). Description: Inhibition of CDK2 K2 labeling site in human Huh-7 cells at 10 uM by KiNativ Profiling analysis relative to control. Type of assay: cell-based.
For assay [11], the target named is Cyclin-dependent kinase 7 (Homo sapiens) (UniProt P50613). Description: Inhibition of CDK7 K2 labeling site in human Huh-7 cells at 1 uM by KiNativ Profiling analysis relative to control. Type of assay: cell-based.
Cyclin-dependent kinase 7 (Homo sapiens), sequence (P50613 whole entry): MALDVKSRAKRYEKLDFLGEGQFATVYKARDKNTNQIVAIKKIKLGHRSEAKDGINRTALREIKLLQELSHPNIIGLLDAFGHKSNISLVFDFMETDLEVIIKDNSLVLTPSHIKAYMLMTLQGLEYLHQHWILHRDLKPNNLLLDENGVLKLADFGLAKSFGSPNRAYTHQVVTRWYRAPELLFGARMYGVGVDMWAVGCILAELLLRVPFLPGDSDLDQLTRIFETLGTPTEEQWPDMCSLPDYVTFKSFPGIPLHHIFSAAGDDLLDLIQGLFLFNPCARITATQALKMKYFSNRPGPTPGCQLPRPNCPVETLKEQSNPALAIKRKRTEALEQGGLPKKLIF
The target of assay [12] is Mitogen-activated protein kinase 4 (Homo sapiens) (UniProt P31152). Description: Inhibition of ERK4 (unknown origin) at 10 uM by Ambit Kinomescan binding assay.
Mitogen-activated protein kinase 4 (Homo sapiens), sequence (P31152 whole entry): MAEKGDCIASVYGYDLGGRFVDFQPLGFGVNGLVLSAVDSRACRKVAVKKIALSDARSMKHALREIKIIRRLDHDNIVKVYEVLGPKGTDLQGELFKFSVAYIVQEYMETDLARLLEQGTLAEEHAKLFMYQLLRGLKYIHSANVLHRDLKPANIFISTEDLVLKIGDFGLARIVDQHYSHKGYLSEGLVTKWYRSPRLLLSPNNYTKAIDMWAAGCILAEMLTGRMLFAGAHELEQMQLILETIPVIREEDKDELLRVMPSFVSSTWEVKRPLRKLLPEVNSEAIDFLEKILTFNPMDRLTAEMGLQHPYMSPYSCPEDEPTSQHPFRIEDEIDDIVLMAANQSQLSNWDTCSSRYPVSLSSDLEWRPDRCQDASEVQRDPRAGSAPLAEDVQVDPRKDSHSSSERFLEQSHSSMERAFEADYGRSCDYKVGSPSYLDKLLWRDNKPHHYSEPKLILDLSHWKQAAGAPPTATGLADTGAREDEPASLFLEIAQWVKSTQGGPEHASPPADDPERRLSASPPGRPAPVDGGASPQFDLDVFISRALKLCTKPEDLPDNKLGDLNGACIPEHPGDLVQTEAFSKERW
For assay [13], the target named is T2, Dual specificity mitogen-activated protein kinase kinase 4 (Homo sapiens) (UniProt P45985).
T2 sequence (whole entry): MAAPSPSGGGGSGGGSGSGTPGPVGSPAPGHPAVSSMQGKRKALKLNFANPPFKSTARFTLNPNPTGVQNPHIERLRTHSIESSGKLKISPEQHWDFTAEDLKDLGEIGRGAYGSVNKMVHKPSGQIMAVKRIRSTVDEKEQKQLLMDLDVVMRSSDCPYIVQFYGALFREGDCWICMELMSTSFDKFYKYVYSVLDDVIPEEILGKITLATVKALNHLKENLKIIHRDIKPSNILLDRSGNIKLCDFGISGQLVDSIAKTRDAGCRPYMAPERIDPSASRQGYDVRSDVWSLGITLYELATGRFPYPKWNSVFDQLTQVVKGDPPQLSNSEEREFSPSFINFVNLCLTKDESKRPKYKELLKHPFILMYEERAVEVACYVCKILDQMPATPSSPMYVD
Description: Inhibition of MAP2K4 K2 labeling site harbouring DIKPSNILLDR in human Huh-7 cells at 1 uM by KiNativ Profiling analysis relative to control. Type of assay: cell-based.

In assay [14] the target is Serine/threonine-protein kinase Nek4 (Homo sapiens) (UniProt P51957). Briefly: Inhibition of NEK4 K2 labeling site in human Huh-7 cells at 10 uM by KiNativ Profiling analysis relative to control. Type of assay: cell-based.
Assay [15] addresses Serine/threonine-protein kinase BRSK2 (Homo sapiens) (UniProt Q8IWQ3). Briefly: Inhibition of BRSK2 (unknown origin) at 10 uM by Ambit Kinomescan binding assay.
Assay [16] deals with Cyclin-dependent kinase 17 (Homo sapiens) (UniProt Q00537). Briefly: Inhibition of PCTAIRE2 Lys2 labeling site harbouring DLKPQNLLINEKGELKLADFGLAR in human Huh-7 cells at 1 uM by KiNativ Profiling analysis relative to control. Type of assay: cell-based.
Cyclin-dependent kinase 17 (Homo sapiens), sequence (Q00537 whole entry, looked up): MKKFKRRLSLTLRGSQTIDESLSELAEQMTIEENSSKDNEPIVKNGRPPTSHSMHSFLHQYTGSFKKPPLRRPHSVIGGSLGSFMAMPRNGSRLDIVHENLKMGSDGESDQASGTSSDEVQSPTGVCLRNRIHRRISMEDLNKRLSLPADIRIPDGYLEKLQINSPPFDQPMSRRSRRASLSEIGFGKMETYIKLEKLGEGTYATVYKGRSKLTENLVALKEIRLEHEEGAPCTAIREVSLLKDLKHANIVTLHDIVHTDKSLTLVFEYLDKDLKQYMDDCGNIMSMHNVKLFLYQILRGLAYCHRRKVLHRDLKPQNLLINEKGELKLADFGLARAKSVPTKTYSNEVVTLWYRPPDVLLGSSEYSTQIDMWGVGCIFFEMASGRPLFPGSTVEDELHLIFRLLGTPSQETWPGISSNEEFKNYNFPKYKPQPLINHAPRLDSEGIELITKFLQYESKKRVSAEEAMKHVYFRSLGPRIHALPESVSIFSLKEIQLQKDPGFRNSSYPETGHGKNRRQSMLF
Assay [17] deals with Serine/threonine-protein kinase WNK2 (Homo sapiens) (UniProt Q9Y3S1). Briefly: Inhibition of Wnk2 Lys2 labeling site in human Huh-7 cells at 1 uM by KiNativ Profiling analysis relative to control. Type of assay: cell-based.
Assay [18] concerns the target Cyclin-dependent kinase 11B (Homo sapiens) (UniProt P21127). Description: Inhibition of PITSLRE Lys2 labeling site in human Huh-7 cells at 1 uM by KiNativ Profiling analysis relative to control. Type of assay: cell-based.
Assay [19] addresses Ribosomal protein S6 kinase alpha-1 (Homo sapiens) (UniProt Q15418). Description: Inhibition of RSK1 domain2 Lys2 labeling site in human Huh-7 cell lysate at 1 uM by KiNativ Profiling analysis relative to control. Type of assay: subcellular.
The target of assay [20] is T3, Serine/threonine-protein kinase STK11 (Homo sapiens) (UniProt Q15831).
T3 sequence (whole entry): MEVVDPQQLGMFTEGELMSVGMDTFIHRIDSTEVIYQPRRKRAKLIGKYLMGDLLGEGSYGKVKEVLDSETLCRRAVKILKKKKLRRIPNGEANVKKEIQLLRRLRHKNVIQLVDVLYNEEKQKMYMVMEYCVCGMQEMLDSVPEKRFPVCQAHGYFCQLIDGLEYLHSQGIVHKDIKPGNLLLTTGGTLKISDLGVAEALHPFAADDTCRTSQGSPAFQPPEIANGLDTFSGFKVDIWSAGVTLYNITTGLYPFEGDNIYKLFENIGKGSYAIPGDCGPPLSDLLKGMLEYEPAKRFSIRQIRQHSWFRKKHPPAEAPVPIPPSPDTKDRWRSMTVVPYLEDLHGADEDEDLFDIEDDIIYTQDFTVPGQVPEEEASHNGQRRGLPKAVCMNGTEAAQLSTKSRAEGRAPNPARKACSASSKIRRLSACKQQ
Description: Inhibition of LKB1 Lys2 labeling site in human Huh-7 cells at 1 uM by KiNativ Profiling analysis relative to control. Type of assay: cell-based.

Calls of active or inactive are those of the source. The calls are words filed in the database; no cut-off is given here.

Serine/threonine-protein kinase BRSK2 (Homo sapiens), sequence (Q8IWQ3 whole entry): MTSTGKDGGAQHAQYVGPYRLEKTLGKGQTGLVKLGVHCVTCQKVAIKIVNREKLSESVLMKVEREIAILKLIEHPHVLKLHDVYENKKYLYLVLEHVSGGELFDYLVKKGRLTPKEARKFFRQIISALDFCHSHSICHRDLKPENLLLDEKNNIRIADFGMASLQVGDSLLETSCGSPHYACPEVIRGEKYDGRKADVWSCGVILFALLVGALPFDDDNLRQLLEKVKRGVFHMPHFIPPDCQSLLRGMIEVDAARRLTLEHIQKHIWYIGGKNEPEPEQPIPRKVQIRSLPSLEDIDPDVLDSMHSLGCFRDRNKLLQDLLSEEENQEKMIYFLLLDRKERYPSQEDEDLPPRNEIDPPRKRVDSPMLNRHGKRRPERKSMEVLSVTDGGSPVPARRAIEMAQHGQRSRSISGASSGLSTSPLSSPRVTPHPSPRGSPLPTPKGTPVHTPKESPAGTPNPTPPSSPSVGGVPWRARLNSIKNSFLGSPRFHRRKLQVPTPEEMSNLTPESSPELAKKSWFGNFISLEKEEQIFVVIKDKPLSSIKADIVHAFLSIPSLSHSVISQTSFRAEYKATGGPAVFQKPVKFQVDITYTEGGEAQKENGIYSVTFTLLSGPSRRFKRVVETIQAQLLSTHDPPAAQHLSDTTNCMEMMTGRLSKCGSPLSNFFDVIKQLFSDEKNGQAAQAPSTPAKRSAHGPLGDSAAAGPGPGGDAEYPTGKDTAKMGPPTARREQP
Misshapen-like kinase 1 (Homo sapiens), sequence (Q8N4C8 whole entry, looked up): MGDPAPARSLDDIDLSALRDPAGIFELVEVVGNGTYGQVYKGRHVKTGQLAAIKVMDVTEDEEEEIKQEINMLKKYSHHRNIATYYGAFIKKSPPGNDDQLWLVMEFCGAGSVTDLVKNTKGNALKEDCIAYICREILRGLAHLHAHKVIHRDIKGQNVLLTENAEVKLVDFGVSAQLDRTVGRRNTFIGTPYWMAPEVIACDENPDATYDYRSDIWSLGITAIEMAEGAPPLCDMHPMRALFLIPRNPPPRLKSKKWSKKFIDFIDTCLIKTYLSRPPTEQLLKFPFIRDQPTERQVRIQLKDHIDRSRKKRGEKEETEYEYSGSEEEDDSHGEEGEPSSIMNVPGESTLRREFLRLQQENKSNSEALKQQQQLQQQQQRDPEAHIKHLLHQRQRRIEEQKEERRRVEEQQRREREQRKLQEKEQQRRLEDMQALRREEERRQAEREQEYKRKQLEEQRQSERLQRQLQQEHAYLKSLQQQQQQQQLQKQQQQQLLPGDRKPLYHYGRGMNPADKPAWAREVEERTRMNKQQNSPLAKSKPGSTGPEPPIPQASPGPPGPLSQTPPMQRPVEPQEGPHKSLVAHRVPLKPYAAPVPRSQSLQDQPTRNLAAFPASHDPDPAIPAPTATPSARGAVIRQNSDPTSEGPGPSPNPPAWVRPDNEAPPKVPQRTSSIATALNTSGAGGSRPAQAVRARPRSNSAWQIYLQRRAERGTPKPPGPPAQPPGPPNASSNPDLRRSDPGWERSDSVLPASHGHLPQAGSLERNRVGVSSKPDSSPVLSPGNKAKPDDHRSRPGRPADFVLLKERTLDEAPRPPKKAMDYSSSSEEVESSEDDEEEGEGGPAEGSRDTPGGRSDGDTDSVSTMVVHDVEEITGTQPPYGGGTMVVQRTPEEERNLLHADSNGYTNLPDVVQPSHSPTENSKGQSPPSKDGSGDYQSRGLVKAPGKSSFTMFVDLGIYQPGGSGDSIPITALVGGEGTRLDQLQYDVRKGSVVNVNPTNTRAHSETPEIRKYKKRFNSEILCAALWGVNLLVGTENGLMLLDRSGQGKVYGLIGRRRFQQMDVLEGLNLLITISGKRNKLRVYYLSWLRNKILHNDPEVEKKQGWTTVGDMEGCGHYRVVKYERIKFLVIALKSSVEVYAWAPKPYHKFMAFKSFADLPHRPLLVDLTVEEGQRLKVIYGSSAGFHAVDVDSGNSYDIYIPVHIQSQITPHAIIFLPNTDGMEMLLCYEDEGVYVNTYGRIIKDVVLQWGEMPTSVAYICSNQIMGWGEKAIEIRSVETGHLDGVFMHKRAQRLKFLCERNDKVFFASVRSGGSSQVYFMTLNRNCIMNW
Cyclin-dependent kinase 11B (Homo sapiens), sequence (P21127 whole entry, the tested form may be a part): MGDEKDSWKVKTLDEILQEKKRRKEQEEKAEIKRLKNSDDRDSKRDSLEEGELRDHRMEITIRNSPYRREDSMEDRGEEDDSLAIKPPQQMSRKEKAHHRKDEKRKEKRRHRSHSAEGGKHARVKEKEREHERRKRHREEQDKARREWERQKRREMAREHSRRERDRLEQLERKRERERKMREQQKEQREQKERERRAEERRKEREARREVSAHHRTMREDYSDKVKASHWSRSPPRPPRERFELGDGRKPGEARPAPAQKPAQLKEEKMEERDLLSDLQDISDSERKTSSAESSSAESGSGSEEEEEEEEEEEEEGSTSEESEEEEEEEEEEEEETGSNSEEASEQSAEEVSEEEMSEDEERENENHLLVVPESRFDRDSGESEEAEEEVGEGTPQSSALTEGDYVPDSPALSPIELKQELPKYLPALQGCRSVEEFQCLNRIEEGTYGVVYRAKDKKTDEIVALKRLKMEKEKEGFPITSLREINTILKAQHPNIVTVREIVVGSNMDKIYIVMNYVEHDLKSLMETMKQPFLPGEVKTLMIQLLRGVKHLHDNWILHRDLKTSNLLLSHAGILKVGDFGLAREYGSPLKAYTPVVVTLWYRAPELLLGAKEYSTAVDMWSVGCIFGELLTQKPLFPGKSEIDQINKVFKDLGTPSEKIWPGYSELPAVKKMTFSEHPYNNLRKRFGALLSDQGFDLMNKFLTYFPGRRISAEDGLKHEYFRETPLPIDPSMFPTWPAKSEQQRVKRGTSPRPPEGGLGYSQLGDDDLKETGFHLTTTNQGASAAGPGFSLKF

For the compound `CCN1CCN(Cc2ccc(NC(=O)c3ccc(C)c(/C=C/c4cnc5[nH]ccc5c4OC)c3)cc2C(F)(F)F)CC1`, in assay [1], the inhibition came out at 76%.
Compound `CCN1CCN(Cc2ccc(NC(=O)c3ccc(C)c(Oc4ccnc5[nH]ccc45)c3)cc2C(F)(F)F)CC1` yielded a residual activity in assay [2] of 1.6%. The inhibition entry in assay [3], in assay [6], in assay [12] and in assay [15] was “inactive” in each case. In addition, the inhibition in [4] is 5.5%; in assay [5], 3.3%; in assay [8], 92.7%; in assay [9], 14%; in assay [10], 16.2%; in [11], 5.6%. Further, the inhibition in assay [13] was -9.3%; in [14] it was 11.4%. For the same compound, the percent of control in assay [7] is 0%.
For `CNc1cc(Oc2cc(C(=O)Nc3cc(N4CCN(C)CC4)cc(C(F)(F)F)c3)ccc2C)ncn1`, the inhibition is -9.1% in [16]; 15.3% in [17]; 15.6% in [18]; -2% in assay [19]; 15.1% in assay [20].

One may read the inhibition as the drop in the measured response relative to a control, in per cent. As usually defined, the residual activity is what remains of the control signal, in per cent. Higher therefore signals much activity left.
